SMILES strings stand for the structures.

The target in the assay is Soluble epoxide hydrolase (Homo sapiens). In words: Inhibition of human recombinant soluble epoxide hydrolase expressed in Escherichia coli after 30 mins by PHOME-based fluorescence assay.
In the case of `COc1ccc(-c2nc3ccc(C)cn3c2NC2CCCCC2)cc1OCCCNC(=O)Nc1ccc(OC(F)(F)F)cc1`, the IC50 (in general, the concentration that gives 50% inhibition) worked out at 1110 nM.
With `Cc1ccc2nc(-c3ccc(OCCCNC(=O)Nc4ccc(C(F)(F)F)cc4)c(Cl)c3)c(NC3CCCCC3)n2c1`, the IC50 amounted to 192 nM.
As for `COc1cc(-c2nc3ccc(C)cn3c2NC2CCCCC2)ccc1OCCCNC(=O)NC1CCCCC1`, the concentration for half-maximal inhibition (IC50) was found to be 190 nM.
Then `COc1cc(-c2nc3ccc(C)cn3c2NC2CCCCC2)ccc1OCCCNC(=O)Nc1ccc(C(F)(F)F)cc1`, with 439 nM.
The result for `COc1cc(-c2nc3ccc(C)cn3c2NC2CCCCC2)ccc1OCCCNC(=O)Nc1ccc(OC(F)(F)F)cc1` reads 116 nM; that for `COc1cc(-c2nc3ccc(Cl)cn3c2NC2CCCCC2)ccc1OCCCNC(=O)Nc1ccc(C(F)(F)F)cc1`, 336 nM.
Then `COc1cc(-c2nc3ccc(F)cn3c2NC2CCCCC2)ccc1OCCCNC(=O)Nc1ccc(OC(F)(F)F)cc1`, with 696 nM.
For the molecule `COc1cc(-c2nc3ccc(F)cn3c2NC2CCCCC2)ccc1OCCCNC(=O)Nc1ccc(C(F)(F)F)cc1`, the 50% inhibitory concentration (IC50) came out at 649 nM.
Regarding `COc1cc(-c2nc3ccc(C)cn3c2NC2CCCC2)ccc1OCCCNC(=O)Nc1ccc(OC(F)(F)F)cc1`, the IC50 was 473 nM.
On to `COc1cc(-c2nc3ccc(C)cn3c2NC2CCCC2)ccc1OCCCNC(=O)Nc1ccc(C(F)(F)F)cc1`, for which the half-inhibitory concentration (IC50) stood at 614 nM.
For `COc1cc(-c2nc3ccc(C)cn3c2NC(C)C)ccc1OCCCNC(=O)Nc1ccc(C(F)(F)F)cc1`, the IC50 amounted to 620 nM.
`COc1cc(-c2nc3ccc(F)cn3c2NC2CCCC2)ccc1OCCCNC(=O)Nc1ccc(C(F)(F)F)cc1`: the concentration for half-maximal inhibition (IC50) amounted to 480 nM.
The result for `COc1cc(-c2nc3ccc(Cl)cn3c2NC(C)C)ccc1OCCCNC(=O)Nc1ccc(C(F)(F)F)cc1` reads 439 nM; that for `O=C(Nc1ccc(Cl)cc1)N1CCC(CO)CC1`, 2240 nM.

Values taken from ChEMBL document CHEMBL2331454, “Synthesis and structure-activity relationship studies of novel dual inhibitors of soluble epoxide hydrolase and 5-lipoxygenase” (J Med Chem, 2013).
